Measured values: the NIST ThermoML archive (doi:10.1021/je800155q)
± gives the expanded uncertainty stated by the source.

Experiments:
[1] = molar enthalpy of vaporization or sublimation; conditions: 298.15 K, Calvet Microcalorimeter
[2] = Crystal; DTA

Row | molar enthalpy ([1]; Liquid) [kcal/mol] | Normal melting temperature [2] [°C] | molar enthalpy ([1]; Crystal) [kcal/mol] | SMILES
1 | 13 ± 0.621 |  |  | CC(C)(C)c1ccncc1 [4-(1,1-dimethylethyl)pyridine]
2 |  | 68 ± 2 | 18.7 ± 0.813 | CC(C)(C)c1cc(C(C)(C)C)nc(C(C)(C)C)c1 [pyridine, 2,4,6-tris(1,1-dimethylethyl)-]
3 | 13.5 ± 0.574 |  |  | CC(C)(C)c1cccc(C(C)(C)C)n1 [2,6-di-tert-butylpyridine]
